These results are taken from patent US8058290B2, “7-substituted aza-indazoles, compositions containing same, production method and use thereof” (Aventis Pharma S.A., priority 2005, dated 2011).

Counter-ions that a name gives are not always drawn.

Holding throughout (assay type): biochemical
The target of one assay is T1, human Tie2 (Homo sapiens, UniProt Q02763).
T1 construct: corresponding to the intracellular domain amino acids 776-1124 was generated by PCR; made in house; host or cells: baculovirus expression (pFastBacGT)
Kind of assay: Tie2 PLC phosphorylation assay (GST-Tie2, FlashPlate). As to conditions: GST-Tie2 intracellular domain, 2 μM cold ATP, 1 hour at 37° C.; read-out: IC 50 Tie2. The method, then:
The human Tie2 coding sequence corresponding to the intracellular domain amino acids 776-1124 was generated by PCR using the cDNA isolated from human placenta as model. This sequence was introduced into a baculovirus expression vector pFastBacGT in the form of a GST fusion protein.
The inhibitory effect of the molecules is determined in an assay of PLC phosphorylation by Tie2 in the presence of GST-Tie2 purified to approximately 80% of homogeneity. The substrate is composed of the SH2-SH3 fragments of PLC expressed in the form of a GST fusion protein.
The kinase activity of Tie2 is measured in a 20 mM MOPS buffer, pH 7.2, containing 10 mM MgCl2, 10 mM MnCl2, 1 mM DTT and 10 mM of glycerophosphate. In a FlashPlate 96-well plate kept on ice, a reaction mixture composed of 70 μl of kinase buffer containing 100 ng of GST-Tie2 enzyme is deposited per well. 10 μl of the test molecule diluted, in DMSO, to a concentration of at most 10% are subsequently added. For a given concentration, each measurement is carried out in quadruplicate. The reaction is initiated by adding 20 μl of solution containing 2 μg of GST-PLC, 2 μM of cold ATP and 1 μCi of ^33P[ATP]. After incubation for 1 hour at 37° C., the reaction is stopped by adding 1 volume (100 μl) of EDTA at 200 mM. After removal of the incubation buffer, the wells are washed three times with 300 μl of PBS. The radioactivity is measured on a Wallac MicroBeta1450.
The inhibition of the Tie2 activity is calculated and expressed as percentage inhibition relative to the control activity determined in the absence of compound.

The next assay addresses T2, human KDR enzyme (Homo sapiens, UniProt P35968).
T2 construct: The cytoplasmic domain of the human KDR enzyme was cloned in the form of a GST fusion; GST; made in house; host or cells: SF21 insect cells (baculovirus, pFastBac)
Kind of assay: KDR substrate phosphorylation assay (scintillation, 96-well plate). As to conditions: cytoplasmic domain of human KDR as GST fusion, 2 μM cold ATP, 1 hour at 37° C. As for the experimental part:
2. KDR The inhibitory effect of the compounds is determined in an assay of substrate phosphorylation by the KDR enzyme in vitro using a scintillation technique (96-well plate, NEN). The cytoplasmic domain of the human KDR enzyme was cloned in the form of a GST fusion into the baculovirus expression vector pFastBac. The protein was expressed in SF21 cells and purified to approximately 60% homogeneity. The kinase activity of KDR is measured in 20 mM MOPS, 10 mM MgCl2, 10 mM MnCl2, 1 mM DTT, 2.5 mM EGTA and 10 mM b-glycerophosphate, pH=7.2, in the presence of 10 mM MgCl2, 100 μM Na3VO4 and 1 mM NaF. 10 μl of the compound are added to 70 μl of kinase buffer containing 100 ng of KDR enzyme at 4° C. The reaction is initiated by adding 20 μl of solution containing 2 μg of substrate (SH2-SH3 fragment of PLCγ expressed in the form of a GST fusion protein), 2 μCi γ^33P[ATP] and 2 μM cold ATP. After incubation for 1 hour at 37° C., the reaction is stopped by adding 1 volume (100 μl) of 200 mM EDTA. The incubation buffer is removed, and the wells are washed three times with 300 μl of PBS. The radioactivity is measured in each well using a Top Count NXT radioactivity counter (Packard). The background noise is determined by measuring the radioactivity in four different wells containing radioactive ATP and the substrate alone. A total activity control is measured in four different wells containing all the reactants (γ^33P-[ATP], KDR and PLCγ substrate) but in the absence of compound. The inhibition of the KDR activity with the compound of the invention is expressed as percentage inhibition of the control activity determined in the absence of compound. The compound SU5614 (Calbiochem) (1 μM) is included in each plate as an inhibition control.

Another assay deals with T3, human FAK (Homo sapiens, UniProt Q05397).
T3 construct: The complete cDNA of human FAK, the N-terminal end of which had been labelled with histidine; made in house; host or cells: baculovirus expression (pFastBac HTc)
Kind of assay: FAK autophosphorylation time resolved fluorescence assay (HTRF). As to conditions: 15 μM ATP, 1 hour at 37° C. The method, then: Determination of the Activity of the Compounds—Experimental Protocols 1. FAK
The inhibitory activity of the compounds on FAK is determined by measuring the inhibition of autophosphorylation of the enzyme using a time resolved fluorescence assay (HTRF).
The complete cDNA of human FAK, the N-terminal end of which had been labelled with histidine, was cloned into a baculovirus expression vector pFastBac HTc. The protein was expressed and purified to approximately 70% homogeneity.
The kinase activity is determined by incubating the enzyme (6.6 μg/ml) with various concentrations of test compound in a 50 mM Hepes buffer, pH=7.2, containing 10 mM MgCl2, 100 μM Na3VO4, and 15 μM of ATP for 1 hour at 37° C. […] The XL-665-specific long-lasting signal is measured in a Packard Discovery plate counter. All the assays were carried out in duplicate and the mean of the two assays is calculated. The inhibition of the FAK autophosphorylation activity with compounds of the invention is expressed as percentage inhibition relative to a control, the activity of which is measured in the absence of test compound. […]

T2 sequence (P35968 786-1356 limits assumed): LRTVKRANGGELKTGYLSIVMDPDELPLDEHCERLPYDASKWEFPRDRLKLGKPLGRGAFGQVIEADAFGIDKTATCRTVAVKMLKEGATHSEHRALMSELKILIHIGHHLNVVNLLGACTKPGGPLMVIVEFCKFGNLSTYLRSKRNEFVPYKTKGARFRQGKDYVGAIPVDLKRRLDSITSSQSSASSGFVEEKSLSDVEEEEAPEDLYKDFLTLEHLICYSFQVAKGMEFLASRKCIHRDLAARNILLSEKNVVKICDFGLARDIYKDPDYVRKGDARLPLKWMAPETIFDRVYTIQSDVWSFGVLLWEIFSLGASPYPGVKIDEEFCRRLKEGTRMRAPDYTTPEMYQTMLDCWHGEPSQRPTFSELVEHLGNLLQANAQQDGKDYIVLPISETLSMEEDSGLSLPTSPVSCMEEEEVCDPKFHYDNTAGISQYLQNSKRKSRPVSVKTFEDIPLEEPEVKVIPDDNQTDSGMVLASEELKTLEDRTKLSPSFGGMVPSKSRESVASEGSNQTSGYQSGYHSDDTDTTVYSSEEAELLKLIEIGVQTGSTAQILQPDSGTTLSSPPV
T1 sequence (Q02763 776-1124): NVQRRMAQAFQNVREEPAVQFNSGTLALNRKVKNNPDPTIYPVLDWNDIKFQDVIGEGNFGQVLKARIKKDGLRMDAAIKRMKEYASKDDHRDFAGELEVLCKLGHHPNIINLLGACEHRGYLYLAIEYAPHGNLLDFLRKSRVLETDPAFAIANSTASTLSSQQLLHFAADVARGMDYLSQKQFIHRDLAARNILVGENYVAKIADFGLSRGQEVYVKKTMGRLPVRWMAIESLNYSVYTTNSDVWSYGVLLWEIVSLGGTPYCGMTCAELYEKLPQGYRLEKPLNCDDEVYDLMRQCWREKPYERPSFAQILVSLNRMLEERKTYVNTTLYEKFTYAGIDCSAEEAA
T3 sequence (Q05397 whole entry): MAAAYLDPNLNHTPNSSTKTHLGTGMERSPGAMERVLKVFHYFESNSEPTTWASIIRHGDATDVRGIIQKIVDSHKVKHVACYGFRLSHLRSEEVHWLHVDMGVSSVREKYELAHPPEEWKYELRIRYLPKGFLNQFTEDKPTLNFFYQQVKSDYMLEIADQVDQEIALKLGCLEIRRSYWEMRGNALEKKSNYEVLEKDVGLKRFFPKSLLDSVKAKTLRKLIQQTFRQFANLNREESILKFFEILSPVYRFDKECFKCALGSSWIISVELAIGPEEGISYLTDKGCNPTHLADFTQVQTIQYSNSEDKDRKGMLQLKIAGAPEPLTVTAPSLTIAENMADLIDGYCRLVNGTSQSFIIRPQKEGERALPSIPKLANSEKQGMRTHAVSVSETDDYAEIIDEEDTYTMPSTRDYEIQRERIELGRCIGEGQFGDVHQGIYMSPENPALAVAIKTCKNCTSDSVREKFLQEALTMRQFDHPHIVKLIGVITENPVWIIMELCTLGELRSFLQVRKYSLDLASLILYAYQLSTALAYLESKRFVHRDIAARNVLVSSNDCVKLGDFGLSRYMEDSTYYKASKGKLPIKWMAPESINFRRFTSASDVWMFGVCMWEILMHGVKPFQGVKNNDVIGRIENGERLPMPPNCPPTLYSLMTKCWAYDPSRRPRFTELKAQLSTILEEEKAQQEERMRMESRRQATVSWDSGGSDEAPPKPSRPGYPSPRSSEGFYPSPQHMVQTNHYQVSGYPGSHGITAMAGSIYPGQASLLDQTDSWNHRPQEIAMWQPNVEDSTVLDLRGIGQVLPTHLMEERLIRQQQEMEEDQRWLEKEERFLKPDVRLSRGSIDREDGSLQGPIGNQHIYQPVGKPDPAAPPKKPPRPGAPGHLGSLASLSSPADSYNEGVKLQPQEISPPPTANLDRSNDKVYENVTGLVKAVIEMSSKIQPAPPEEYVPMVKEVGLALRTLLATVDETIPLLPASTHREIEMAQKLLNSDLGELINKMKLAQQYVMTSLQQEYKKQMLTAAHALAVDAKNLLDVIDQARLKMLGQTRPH

Take `Nc1n[nH]c2nc(-c3ccc(NC(=O)Nc4cc(C(F)(F)F)ccc4F)cc3)ccc12` [Example 1, 1-[4-(3-Amino-1H-pyrazolo[3,4-b]pyridin-6-yl)phenyl]-3-(2-fluoro-5-trifluoromethylphenyl)urea]: the results for the IC50 on human Tie2 and on human KDR enzyme were 192 nM and 119 nM, respectively. With `O=C(Nc1ccc(-c2ccc3c(NC(=O)c4ccsc4)n[nH]c3n2)cc1)Nc1cc(C(F)(F)F)ccc1F` [Example 2, Thiophene-3-carboxylic acid (6-{4-[3-(2-fluoro-5-trifluoromethylphenyl)ureido]phenyl}-1H-pyrazolo[3,4-b]pyridin-3-yl)amide], the IC50 was determined as 7 nM at human Tie2 and 6 nM on human KDR enzyme. In the case of `Nc1n[nH]c2nc(-c3ccc(NS(=O)(=O)c4cccc(Cl)c4Cl)cc3)ccc12` [Example 3, N-[4-(3-Amino-1H-pyrazolo[3,4-b]pyridin-6-yl)phenyl]-2,3-dichlorobenzenesulphonamide], at human Tie2, the IC50 was 75 nM.

In the case of `O=C(Nc1ncc(-c2cc(C(=O)NCCN3CCOCC3)c3cn[nH]c3n2)s1)Nc1cc(C(F)(F)F)ccc1F` [Example 4, 6-{2-[3-(2-Fluoro-5-trifluoromethylphenyl)ureido]thiazol-5-yl}-1H-pyrazolo[3,4-b]pyridine-4-carboxylic acid (2-morpholin-4-ylethyl)amide trifluoroacetate], the IC50 against human FAK amounted to 343 nM; at human Tie2, 1 nM; at human KDR enzyme it was 83 nM. As for `CNC(=O)c1cc(-c2ccc(NS(=O)(=O)c3cccc(Cl)c3Cl)cc2)nc2[nH]ncc12` [Example 5], the IC50 at human Tie2 is 13 nM. Regarding `O=C(Nc1ccccc1)Nc1ncc(-c2cc(C(=O)NCCN3CCOCC3)c3cn[nH]c3n2)s1` [Example 9], the IC50 on human Tie2 amounted to 443 nM; at human KDR enzyme it was 6820 nM. As to `CNC(=O)c1cc(-c2cnc(NC(=O)Nc3cc(C(F)(F)F)ccc3F)s2)nc2[nH]ncc12` [Example 11], the IC50 turned out to be 927 nM on human FAK, 8 nM at human Tie2 and 581 nM on human KDR enzyme. For `CN(C)CCNC(=O)c1cc(-c2cnc(NC(=O)Nc3cc(C(F)(F)F)ccc3F)s2)nc2[nH]ncc12` [Example 12], the IC50 on human Tie2 stood at 30 nM; on human KDR enzyme, 2360 nM.

Consider `CN(C)CC(C)(C)CNC(=O)c1cc(-c2cnc(NC(=O)Nc3cc(C(F)(F)F)ccc3F)s2)nc2[nH]ncc12` [Example 13], for which the figures for the IC50 at human Tie2 and on human KDR enzyme were 4 nM and 373 nM, respectively.

Regarding `O=C(Nc1ncc(-c2cc(C(=O)NCCc3cnc[nH]3)c3cn[nH]c3n2)s1)Nc1cc(C(F)(F)F)ccc1F` [Example 14], the IC50 at human Tie2 came to 7 nM; at human KDR enzyme, 293 nM.

As to `O=C(Nc1ncc(-c2cc(C(=O)N3CCOCC3)c3cn[nH]c3n2)s1)Nc1cc(C(F)(F)F)ccc1F` [Example 15], the results for the IC50 at human Tie2 and at human KDR enzyme were 2 nM and 70 nM, respectively. `O=C(Nc1ncc(-c2cc(C(=O)N3CCNCC3)c3cn[nH]c3n2)s1)Nc1cc(C(F)(F)F)ccc1F` [Example 16]: the IC50 on human Tie2 is 7 nM; on human KDR enzyme, 200 nM. Regarding `CN1CCN(C(=O)c2cc(-c3cnc(NC(=O)Nc4cc(C(F)(F)F)ccc4F)s3)nc3[nH]ncc23)CC1` [Example 17], the results for the IC50 at human Tie2 and against human KDR enzyme were 1 nM and 46 nM, respectively.

Regarding `CNC(=O)c1cc(-c2ccc(NC(=O)Nc3cc(C(F)(F)F)ccc3F)nc2)nc2[nH]ncc12` [Example 20], the IC50 on human Tie2 came to 777 nM. In the case of `O=C(Nc1ccc(-c2cc(C(=O)NCCN3CCOCC3)c3cn[nH]c3n2)cn1)Nc1cc(C(F)(F)F)ccc1F` [Example 21], the IC50 on human Tie2 amounted to 6030 nM.

Consider `O=C(Nc1ncc(-c2cc(C(=O)NCCCN3CCOCC3)c3cn[nH]c3n2)s1)Nc1cc(C(F)(F)F)ccc1F` [Example 22], for which the IC50 at human Tie2 is 4 nM; on human KDR enzyme it was 511 nM. On to `O=C(Nc1ncc(-c2cc(C(=O)NCCN3CCNCC3)c3cn[nH]c3n2)s1)Nc1cc(C(F)(F)F)ccc1F` [Example 23], for which the IC50 was found to be 6 nM on human Tie2 and 527 nM against human KDR enzyme. For `O=C(Nc1ncc(-c2cc(C(=O)NCCC3CCNCC3)c3cn[nH]c3n2)s1)Nc1cc(C(F)(F)F)ccc1F` [Example 24] the same measures were 2 nM and 133 nM.

On to `O=C(Nc1ncc(-c2cc(C(=O)NCCO)c3cn[nH]c3n2)s1)Nc1cc(C(F)(F)F)ccc1F` [Example 26], for which the IC50 stood at 3 nM on human Tie2 and 387 nM on human KDR enzyme.

Consider `O=C(Nc1ncc(-c2cc(C(=O)NCc3ccncc3)c3cn[nH]c3n2)s1)Nc1cc(C(F)(F)F)ccc1F` [Example 28], for which the values for the IC50 on human Tie2 and on human KDR enzyme were 105 nM and 4660 nM, respectively.

Regarding `O=C(Nc1ncc(-c2cc(C(=O)NCc3ccccn3)c3cn[nH]c3n2)s1)Nc1cc(C(F)(F)F)ccc1F` [Example 29], the IC50 at human Tie2 is 3 nM; on human KDR enzyme it was 160 nM. For `O=C(Nc1ncc(-c2cc(C(=O)NCCCN3CCCC3CO)c3cn[nH]c3n2)s1)Nc1cc(C(F)(F)F)ccc1F` (stereo not shown) [Example 31] the same measures were 9 nM and 647 nM. As for `CNC(=O)c1cc(-c2cccc(NC(=O)Nc3cc(C(F)(F)F)ccc3F)c2)nc2[nH]ncc12` [Example 33], the IC50 at human Tie2 worked out at 2700 nM.

For `O=C(Nc1cccc(-c2cc(C(=O)NCCN3CCOCC3)c3cn[nH]c3n2)c1)Nc1cc(C(F)(F)F)ccc1F` [Example 34], the IC50 on human Tie2 amounted to 4140 nM.

As to `O=C(Nc1ccc(C(F)(F)F)cc1)Nc1ncc(-c2cc(C(=O)NCCN3CCOCC3)c3cn[nH]c3n2)s1` [Example 55], the IC50 came out at 88 nM at human Tie2 and 3540 nM against human KDR enzyme.
